Structures are written as SMILES.

For assay [1], the system named is A549 (human lung carcinoma) cells. The assay is described as follows: Cell Viability Assay (CellTiter-Glo), A549. It is filed as cell-based. The note with it: Homo sapiens, A549, 72 h. An outline of the steps: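 After a 72 h exposure to serial compound dilutions at 37° C, luminescent ATP content was measured with CellTiter-Glo. The cells were A549 or MIA PaCa-2, seeded at 1.67E+04 cells/mL in RPMI 1640 with 10% serum. Signals were normalized to DMSO controls and IC50 fitted with a 4-parameter logistic model.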
In general terms: Cellular ATP, detected with luciferase, serves as a proxy for viable cell number.

The target in another assay is KRAS G12C (Homo sapiens (Human), UniProt P01116, C118A/G12C). The assay is described as follows: 2 h coupled exchange assay. The settings on record: Avg 2 h Coupled exchange IC50, 2 h compound pre-incubation, SOS-mediated nucleotide exchange. Format: biochemical. The procedure:
The term “2 h coupled exchange assay” or “20 h coupled exchange assay” as used herein refers to the assay described in the Section entitled “BIOLOGICAL EVALUATION.”

Assay [2] concerns MIA PaCa-2 (human pancreatic carcinoma) cells. The assay is described as follows: Cell Viability Assay (CellTiter-Glo), MIA PaCa-2. It is filed as cell-based. The note with it: Homo sapiens, MIA PaCa-2, 72 h. On the procedure:
Serially-diluted compound or DMSO was added to the cells, and plates were incubated at 37° C., 5% CO2 for 72 h. Cell viability was measured using a CellTiter-Glo® Luminescent Cell Viability Assay kit (Promega) according to the manufacturer's protocol. The luminescence signal of treated samples was normalized to DMSO control, and data were analyzed using a 4-parameter logistic model to calculate IC50 values.

KRAS G12C, sequence (P01116 other isoform, or with tags, fused parts or gaps G12C/C118A): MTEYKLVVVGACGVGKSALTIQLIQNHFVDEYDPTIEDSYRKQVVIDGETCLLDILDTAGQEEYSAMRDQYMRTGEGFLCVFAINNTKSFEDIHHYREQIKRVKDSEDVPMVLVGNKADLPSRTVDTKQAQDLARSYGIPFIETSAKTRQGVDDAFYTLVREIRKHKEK

By IC50 is commonly meant the midpoint of a concentration-inhibition curve. As for `C=CC(=O)N1CC2(CCN(c3nc4c(c(-c5c(C)ccc6[nH]ncc56)c3C#N)COC3(CCOC3)C4)C2)C1` [Example 13-51, (3R)-4′-(5-methyl-1H-indazol-4-yl)-2′-(2-(2-propenoyl)-2,6-diazaspiro[3.4]octan-6-yl)-4,5,5′,8′-tetrahydrospiro[furan-3,7′-pyrano[4,3-b]pyridine]-3′-carbonitrile|(3S)-4′-(5-methyl-1H-indazol-4-yl)-2′-(2-(2-propenoyl)-2,6-diazaspiro[3.4]octan-6-yl)-4,5,5′,8′-tetrahydrospiro[furan-3,7′-pyrano[4,3-b]pyridine]-3′-carbonitrile], the IC50 in assay [1] is more than 5 µM; on KRAS G12C it was 95 nM; in assay [2], 287 nM.
For `C=CC(=O)N1CC2(CCN(c3nc4c(c(-c5c(C)ccc6[nH]ncc56)c3C#N)CC(C)(C)C4)C2C)C1` [Example 13-52, 6,6-dimethyl-4-(5-methyl-1H-indazol-4-yl)-2-((5R)-5-methyl-2-(2-propenoyl)-2,6-diazaspiro[3.4]octan-6-yl)-6,7-dihydro-5H-cyclopenta[b]pyridine-3-carbonitrile|6,6-dimethyl-4-(5-methyl-1H-indazol-4-yl)-2-((5S)-5-methyl-2-(2-propenoyl)-2,6-diazaspiro[3.4]octan-6-yl)-6,7-dihydro-5H-cyclopenta[b]pyridine-3-carbonitrile], in that order: more than 5 µM, 43 nM and 231 nM.
The matching figures for `C=CC(=O)N1CC2(CCN(c3nc4c(c(-c5cc(O)cc6ccccc56)c3C#N)CC(C)(C)C4)C2)C1` [Example 13-65, 4-(3-hydroxy-1-naphthalenyl)-6,6-dimethyl-2-(2-(2-propenoyl)-2,6-diazaspiro[3.4]octan-6-yl)-6,7-dihydro-5H-cyclopenta[b]pyridine-3-carbonitirle]: more than 5 µM, 74 nM and 472 nM.
The matching figures for `C=CC(=O)N1CC2(CCN(c3nc4c(c(-c5c(C)ccc6[nH]ncc56)c3C#N)CC3CC43)C2)C1` (stereo not drawn) [Example 13-81]: more than 5 µM, 98 nM and 319 nM.
For `C=CC(=O)N1CC2(CCN(c3nc4c(c(-c5c(C)ccc6[nH]ncc56)c3C#N)C3CC3C4)C2)C1` (stereo not drawn) [Example 13-82], the values for the IC50 (in assay [1]; against KRAS G12C; in assay [2]) were more than 5 µM, 66 nM and 462 nM, respectively.
The matching figures for `C=CC(=O)N1CC2(CCN(c3nc4c(c(-c5c(C)ccc6[nH]ncc56)c3C#N)CC(C3CC3)C4)C2)C1` [Example 13-83, (6R)-6-cyclopropyl-4-(5-methyl-1H-indazol-4-yl)-2-(2-(2-propenoyl)-2,6-diazaspiro[3.4]octan-6-yl)-6,7-dihydro-5H-cyclopenta[b]pyridine-3-carbonitrile|(6S)-6-cyclopropyl-4-(5-methyl-1H-indazol-4-yl)-2-(2-(2-propenoyl)-2,6-diazaspiro[3.4]octan-6-yl)-6,7-dihydro-5H-cyclopenta[b]pyridine-3-carbonitrile]: more than 5 µM, 86 nM and more than 5000 nM.
On to `C=CC(=O)N1CC2(CCN(c3nc4c(c(-c5c(C)ccc6[nH]ncc56)c3C#N)C3C(C4)C3(C)C)C2)C1` (stereo not drawn) [Example 13-84], for which the results for the IC50 (in assay [1]; against KRAS G12C; in assay [2]) were more than 5 µM, 108 nM and 479 nM, respectively.
Turning to `C=CC(=O)N1CC2(CCN(c3nc4c(c(-c5c(C)c(C)cc6cnn(C)c56)c3C#N)CCC(C)(C)C4)C2)C1` [Example 13-89, 7,7-dimethyl-2-(2-(2-propenoyl)-2,6-diazaspiro[3.4]octan-6-yl)-4-(1,5,6-trimethyl-1H-indazol-7-yl)-5,6,7,8-tetrahydro-3-quinolinecarbonitrile], the half-inhibitory concentration (IC50) in assay [1] is more than 5 µM; at KRAS G12C, 35 nM; in assay [2], 101 nM.
The matching figures for `C=CC(=O)N1CC2(CCN(c3nc4c(c(-c5c(C)c(C)cc6cnn(C)c56)c3C#N)COC(C)(C)C4)C2)C1` [Example 13-90, 7,7-dimethyl-2-(2-(2-propenoyl)-2,6-diazaspiro[3.4]octan-6-yl)-4-(1,5,6-trimethyl-1H-indazol-7-yl)-7,8-dihydro-5H-pyrano[4,3-b]pyridine-3-carbonitrile]: more than 5 µM, 27 nM and 24 nM.
On to `C=CC(=O)N1CC2(CCN(c3nc4c(c(-c5c(C)ccc6[nH]ncc56)c3C#N)C[C@H]3C[C@@H]4C3(C)C)C2)C1` [Example 13-93, (6R,8R)-2-(2-acryloyl-2,6-diazaspiro[3.4]octan-6-yl)-7,7-dimethyl-4-(5-methyl-1H-indazol-4-yl)-5,6,7,8-tetrahydro-6,8-methanoquinoline-3-carbonitrile], for which the IC50 in assay [1] is more than 5 µM; against KRAS G12C it was 53 nM; in assay [2], 13 nM.
For `C=CC(=O)N1CC2(CCN(c3nc4c(c(-c5c(C)ccc6[nH]ncc56)c3C#N)C[C@H]3C[C@@H]4C3(C)C)C2C)C1` (stereo partly drawn) [Example 13-94, (1R,9R)-10,10-dimethyl-6-(5-methyl-1H-indazol-4-yl)-4-((5R)-5-methyl-2-(2-propenoyl)-2,6-diazaspior[3.4]octan-6-yl)-3-azatricyclo[7.1.1.0^2,7]undeca-2,4,6-triene-5-carbonitrile|(1R,9R)-10,10-dimethyl-6-(5-methyl-1H-indazol-4-yl)-4-((5S)-5-methyl-2-(2-propenoyl)-2,6-diazaspiro[3.4]octan-6-yl)-3-azatricyclo[7.1.1.0^2,7]undeca-2,4,6-triene-5-carbonitrile], in that order: more than 5 µM, 51 nM and 42 nM.
As to `C=CC(=O)N1CC2(CCN(c3nc4c(c(-c5c(C)ccc6[nH]ncc56)c3C#N)COC(C)(C)C4)C2)C1` [Example 13-95, 2-(2-acryloyl-2,6-diazaspiro[3.4]octan-6-yl)-7,7-dimethyl-4-(5-methyl-1H-indazol-4-yl)-7,8-dihydro-5H-pyrano[4,3-b]pyridine-3-carbonitrile], the concentration for half-maximal inhibition (IC50) is more than 5 µM in assay [1], 34 nM against KRAS G12C and 92 nM in assay [2].
With `C=CC(=O)N1CC2(CCN(c3nc4c(c(-c5c(C)ccc6[nH]ncc56)c3C#N)CCCC4(F)F)C2)C1` [Example 13-96, 2-(2-acryloyl-2,6-diazaspiro[3.4]octan-6-yl)-8,8-difluoro-4-(5-methyl-1H-indazol-4-yl)-5,6,7,8-tetrahydroquinoline-3-carbonitrile], the results for the half-maximal inhibitory concentration (IC50) (in assay [1]; against KRAS G12C; in assay [2]) were more than 5 µM, 325 nM and more than 5000 nM, respectively.
The matching figures for `C=CC(=O)N1CC2(CCN(c3nc4c(c(-c5c(C)ccc6[nH]ncc56)c3C#N)CCC4(C)C)C2)C1` [Example 13-97, 2-(2-acryloyl-2,6-diazaspiro[3.4]octan-6-yl)-7,7-dimethyl-4-(5-methyl-1H-indazol-4-yl)-6,7-dihydro-5H-cyclopenta[b]pyridine-3-carbonitrile]: more than 5 µM, 46 nM and 423 nM.
For the compound `C=CC(=O)N1CC2(CCN(c3nc4c(c(-c5c(C)ccc6[nH]ncc56)c3C#N)COC3(CCC3)C4)C2)C1` [Example 13-98, 2′-(2-acryloyl-2,6-diazaspiro[3.4]octan-6-yl)-4′-(5-methyl-1H-indazol-4-yl)-5′,8′-dihydrospiro[cyclobutane-1,7′-pyrano[4,3-b]pyridine]-3′-carbonitrile], the results for the IC50 (in assay [1]; against KRAS G12C; in assay [2]) were more than 5 µM, 51 nM and 103 nM, respectively.
The matching figures for `C=CC(=O)N1CC2(CCN(c3nc4c(c(-c5c(C)ccc6[nH]ncc56)c3C#N)COC(C(F)(F)F)C4)C2)C1` (stereo not drawn) [Example 13-99]: more than 5 µM, 180 nM and 1430 nM.
With `C=CC(=O)N1CC2(CCN(c3nc4c(c(-c5c(C)ccc6[nH]ncc56)c3C#N)COC4(C)C)C2)C1` [Example 13-100, 2-(2-acryloyl-2,6-diazaspiro[3.4]octan-6-yl)-7,7-dimethyl-4-(5-methyl-1H-indazol-4-yl)-5,7-dihydrofuro[3,4-b]pyridine-3-carbonitrile], the concentration for half-maximal inhibition (IC50) in assay [1] was more than 5 µM; against KRAS G12C, 124 nM; in assay [2], 947 nM.
For `C=CC(=O)N1CC2(CCN(c3nc4c(c(-c5c(C)ccc6[nH]ncc56)c3C#N)CCC43CC3)C2)C1` [Example 13-101, 2-(2-acryloyl-2,6-diazaspiro[3.4]octan-6-yl)-4-(5-methyl-1H-indazol-4-yl)-5,6-dihydrospiro[cyclopenta[b]pyridine-7,1′-cyclopropane]-3-carbonitrile], in that order: more than 5 µM, 102 nM and 1370 nM.
In the case of `C=CC(=O)N1CC2(CCN(c3nc4c(c(-c5c(C)ccc6cnn(C)c56)c3C#N)C[C@H]3C[C@@H]4C3(C)C)C2)C1` [Example 13-104, (1R,9R)-6-(1,6-dimethyl-1H-indazol-7-yl)-10,10-dimethyl-4-(2-(2-propenoyl)-2,6-diazaspiro[3.4]octan-6-yl)-3-azatricyclo[7.1.1.0^2,7]undeca-2,4,6-triene-5-carbonitrile], the concentration for half-maximal inhibition (IC50) in assay [1] is more than 5 µM; against KRAS G12C, 97 nM; in assay [2], 1340 nM.

Source of the values: patent US20240059703A1 (AMGEN INC., priority 2021, published 2024).
